Test results taken from paper PMC6979384, “Characterization of the plant homeodomain (PHD) reader family for their histone tail interactions” (Epigenetics & Chromatin, 2020).

How the values were obtained:
Test in all cases: Histone peptide microarray
Type in all cases: binding, human
Settings in all cases: histone peptide array
AIRE (PP) = system: AIRE (PP)
Method in brief: (§1)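 Binding read as mean relative signal from 4 replicates; microarray held 293 synthetic histone peptides with single or combinatorial PTMs. Each GST-tagged PHD reader was applied at 0.5 μM using the optimized Petell protocol.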

BAZ2B = system: BAZ2B
Method in brief: as §1

BPTF (PB) = system: BPTF (PB)
Method in brief: as §1

CHD4 (PPCC) = system: CHD4 (PPCC)
Method in brief: as §1

CHD5 (PCC) = system: CHD5 (PCC)
Method in brief: as §1

CHD5 (PPCC) = system: CHD5 (PPCC)
Method in brief: as §1

DIDO1 = system: DIDO1
Method in brief: as §1

DPF2 (PPC2W2) = system: DPF2 (PPC2W2)
Method in brief: as §1

ING1 = system: ING1
Method in brief: as §1

ING2 = system: ING2
Method in brief: as §1

ING3 = system: ING3
Method in brief: as §1

ING4 = system: ING4
Method in brief: as §1

ING5 = system: ING5
Method in brief: as §1

KDM4C (TTP) = system: KDM4C (TTP)
Method in brief: as §1

KDM5A (1) = system: KDM5A (1)
Method in brief: as §1

KDM5A (3) = system: KDM5A (3)
Method in brief: as §1

KDM5B (1) = system: KDM5B (1)
Method in brief: as §1

KDM5B (3) = system: KDM5B (3)
Method in brief: as §1

KDM7A = system: KDM7A
Method in brief: as §1

MLL5 = system: MLL5
Method in brief: as §1

MORC3 (CW) = system: MORC3 (CW)
Method in brief: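 Each reader, produced as a GST fusion and purified, was tested at 0.5 μM on synthetic histone peptides (293 in total) carrying single or combinatorial marks. Intensities averaged over four replicates.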

PHF13 = system: PHF13
Method in brief: as §1

PHF21A = system: PHF21A
Method in brief: as §1

PHF23 = system: PHF23
Method in brief: as §1

PHF2 = system: PHF2
Method in brief: as §1

PHF8 = system: PHF8
Method in brief: as §1

PHRF1 (RP) = system: PHRF1 (RP)
Method in brief: as §1

RAG2 = system: RAG2
Method in brief: as §1

SP140L = system: SP140L
Method in brief: as §1

TAF3 = system: TAF3
Method in brief: as §1

TRIM66 (PB) = system: TRIM66 (PB)
Method in brief: as §1

[1] = sheet "Array Heatmap", GST-tagged reader, total n = 4

## H4 (1-23): H4 1-23
AIRE (PP); GST-tagged AIRE (PP), arrays performed twice, n of 4
  Array Heatmap signal, AIRE (PP): 0.4854
BAZ2B; GST-tagged BAZ2B, arrays performed twice, n of 4
  Array Heatmap signal, BAZ2B: 0.467
BPTF (PB); GST-tagged BPTF (PB = PHD + Bromodomain), arrays performed twice, n of 4
  Array Heatmap signal, BPTF (PB): 0.3416
CHD4 (PPCC); GST-tagged CHD4 (PPCC = Dual PHD + Dual Chromodomain), arrays performed twice, n of 4
  Array Heatmap signal, CHD4 (PPCC): 0.5522
CHD5 (PCC); GST-tagged CHD5 (PCC = PHD + Dual Chromodomain), arrays performed twice, n of 4
  Array Heatmap signal, CHD5 (PCC): 0.772
CHD5 (PPCC); GST-tagged CHD5 (PPCC = Dual PHD + Dual Chromodomain), arrays performed twice, n of 4
  Array Heatmap signal, CHD5 (PPCC): 0.5714
DIDO1; GST-tagged DIDO1, arrays performed twice, n of 4
  Array Heatmap signal, DIDO1: 0.6189
DPF2 (PPC2W2); GST-tagged DPF2 (PPC2W2 = Dual PHD + C2W2-type Zn-finger), arrays performed twice, n of 4
  Array Heatmap signal, DPF2 (PPC2W2): 0.7352
ING1; GST-tagged ING1, arrays performed twice, n of 4
  Array Heatmap signal, ING1: 0.4959
ING2; GST-tagged ING2, arrays performed twice, n of 4
  Array Heatmap signal, ING2: 0.5875
ING3; GST-tagged ING3, arrays performed twice, n of 4
  Array Heatmap signal, ING3: 0.4725
ING4; GST-tagged ING4, arrays performed twice, n of 4
  Array Heatmap signal, ING4: 0.4424
ING5; GST-tagged ING5, arrays performed twice, n of 4
  Array Heatmap signal, ING5: 0.3618
KDM4C (TTP); GST-tagged KDM4C (TTP = Tandem Tudor domain + PHD), arrays performed twice, n of 4
  Array Heatmap signal, KDM4C (TTP): 0.5139
KDM5A (1); GST-tagged KDM5A (1), arrays performed twice, n of 4
  Array Heatmap signal, KDM5A (1): 0.4868
KDM5A (3); GST-tagged KDM5A (3), arrays performed twice, n of 4
  Array Heatmap signal, KDM5A (3): 0.4566
KDM5B (1); GST-tagged KDM5B (1), arrays performed twice, n of 4
  Array Heatmap signal, KDM5B (1): 0.7073
KDM5B (3); GST-tagged KDM5B (3), arrays performed twice, n of 4
  Array Heatmap signal, KDM5B (3): 0.4835
KDM7A; GST-tagged KDM7A, arrays performed twice, n of 4
  Array Heatmap signal, KDM7A: 0.4019
MLL5; GST-tagged MLL5, arrays performed twice, n of 4
  Array Heatmap signal, MLL5: 0.5337
MORC3 (CW); GST-tagged MORC3 (CW = CW-type Zn-finger), arrays performed twice, n of 4
  Array Heatmap signal, MORC3 (CW): 0.3892
PHF13; GST-tagged PHF13, arrays performed twice, n of 4
  Array Heatmap signal, PHF13: 0.625
PHF21A; GST-tagged PHF21A, arrays performed twice, n of 4
  Array Heatmap signal, PHF21A: 0.4603
PHF23; GST-tagged PHF23, arrays performed twice, n of 4
  Array Heatmap signal, PHF23: 0.53
PHF2; GST-tagged PHF2, arrays performed twice, n of 4
  Array Heatmap signal, PHF2: 0.4784
PHF8; GST-tagged PHF8, arrays performed twice, n of 4
  Array Heatmap signal, PHF8: 0.3699
PHRF1 (RP); GST-tagged PHRF1 (RP), arrays performed twice, n of 4
  Array Heatmap signal, PHRF1 (RP): 0.532
RAG2; GST-tagged RAG2, arrays performed twice, n of 4
  Array Heatmap signal, RAG2: 0.2838
SP140L; GST-tagged SP140L, arrays performed twice, n of 4
  Array Heatmap signal, SP140L: 0.3814
TAF3; GST-tagged TAF3, arrays performed twice, n of 4
  Array Heatmap signal, TAF3: 0.3843
TRIM66 (PB); GST-tagged TRIM66 (PB = PHD + Bromodomain), arrays performed twice, n of 4
  Array Heatmap signal, TRIM66 (PB): 0.7288

## H3R17me1: H3 1-20 [Peptide H3R17me1]
AIRE (PP); [1]
  Array Heatmap signal, AIRE (PP): 0.4567
BAZ2B; [1]
  Array Heatmap signal, BAZ2B: 0.4823
BPTF (PB); [1]
  Array Heatmap signal, BPTF (PB): 0.345
CHD4 (PPCC); [1]
  Array Heatmap signal, CHD4 (PPCC): 0.598
CHD5 (PCC); [1]
  Array Heatmap signal, CHD5 (PCC): 0.834
CHD5 (PPCC); [1]
  Array Heatmap signal, CHD5 (PPCC): 0.5588
DIDO1; [1]
  Array Heatmap signal, DIDO1: 0.721
DPF2 (PPC2W2); [1]
  Array Heatmap signal, DPF2 (PPC2W2): 0.7016
ING1; [1]
  Array Heatmap signal, ING1: 0.5598
ING2; [1]
  Array Heatmap signal, ING2: 0.6036
ING3; [1]
  Array Heatmap signal, ING3: 0.4855
ING4; [1]
  Array Heatmap signal, ING4: 0.4637
ING5; [1]
  Array Heatmap signal, ING5: 0.3567
KDM4C (TTP); [1]
  Array Heatmap signal, KDM4C (TTP): 0.4745
KDM5A (1); [1]
  Array Heatmap signal, KDM5A (1): 0.4728
KDM5A (3); [1]
  Array Heatmap signal, KDM5A (3): 0.5587
KDM5B (1); [1]
  Array Heatmap signal, KDM5B (1): 0.6928
KDM5B (3); [1]
  Array Heatmap signal, KDM5B (3): 0.5296
KDM7A; [1]
  Array Heatmap signal, KDM7A: 0.3476
MLL5; [1]
  Array Heatmap signal, MLL5: 0.5956
MORC3 (CW); [1]
  Array Heatmap signal, MORC3 (CW): 0.4904
PHF13; [1]
  Array Heatmap signal, PHF13: 0.6124
PHF21A; [1]
  Array Heatmap signal, PHF21A: 0.4738
PHF23; [1]
  Array Heatmap signal, PHF23: 0.5635
PHF2; [1]
  Array Heatmap signal, PHF2: 0.5204
PHF8; [1]
  Array Heatmap signal, PHF8: 0.3543
PHRF1 (RP); [1]
  Array Heatmap signal, PHRF1 (RP): 0.8251
RAG2; [1]
  Array Heatmap signal, RAG2: 0.268
SP140L; [1]
  Array Heatmap signal, SP140L: 0.359
TAF3; [1]
  Array Heatmap signal, TAF3: 0.2696
TRIM66 (PB); [1]
  Array Heatmap signal, TRIM66 (PB): 0.643

## H3K9me2 + K27me2: H3 6-30
AIRE (PP); [1]
  Array Heatmap signal, AIRE (PP): 0.5158
BAZ2B; [1]
  Array Heatmap signal, BAZ2B: 0.4949
BPTF (PB); [1]
  Array Heatmap signal, BPTF (PB): 0.3713
CHD4 (PPCC); [1]
  Array Heatmap signal, CHD4 (PPCC): 0.615
CHD5 (PCC); [1]
  Array Heatmap signal, CHD5 (PCC): 0.8305
CHD5 (PPCC); [1]
  Array Heatmap signal, CHD5 (PPCC): 0.6064
DIDO1; [1]
  Array Heatmap signal, DIDO1: 0.6649
DPF2 (PPC2W2); [1]
  Array Heatmap signal, DPF2 (PPC2W2): 0.6273
ING1; [1]
  Array Heatmap signal, ING1: 0.5223
ING2; [1]
  Array Heatmap signal, ING2: 0.6067
ING3; [1]
  Array Heatmap signal, ING3: 0.521
ING4; [1]
  Array Heatmap signal, ING4: 0.4936
ING5; [1]
  Array Heatmap signal, ING5: 0.3864
KDM4C (TTP); [1]
  Array Heatmap signal, KDM4C (TTP): 0.5461
KDM5A (1); [1]
  Array Heatmap signal, KDM5A (1): 0.5009
KDM5A (3); [1]
  Array Heatmap signal, KDM5A (3): 0.4645
KDM5B (1); [1]
  Array Heatmap signal, KDM5B (1): 0.6708
KDM5B (3); [1]
  Array Heatmap signal, KDM5B (3): 0.4954
KDM7A; [1]
  Array Heatmap signal, KDM7A: 0.3867
MLL5; [1]
  Array Heatmap signal, MLL5: 0.5274
MORC3 (CW); [1]
  Array Heatmap signal, MORC3 (CW): 0.385
PHF13; [1]
  Array Heatmap signal, PHF13: 0.655
PHF21A; [1]
  Array Heatmap signal, PHF21A: 0.4962
PHF23; [1]
  Array Heatmap signal, PHF23: 0.5491
PHF2; [1]
  Array Heatmap signal, PHF2: 0.4856
PHF8; [1]
  Array Heatmap signal, PHF8: 0.3721
PHRF1 (RP); [1]
  Array Heatmap signal, PHRF1 (RP): 0.4454
RAG2; [1]
  Array Heatmap signal, RAG2: 0.2639
SP140L; [1]
  Array Heatmap signal, SP140L: 0.3642
TAF3; [1]
  Array Heatmap signal, TAF3: 0.2757
TRIM66 (PB); [1]
  Array Heatmap signal, TRIM66 (PB): 0.6036
